Test results published in patent US20110071197A1, “BIS-ARYL COMPOUNDS FOR USE AS MEDICAMENTS” (priority 2008, published 2011).

Each molecule was assayed against T1, Recombinant human LTC4 synthase (Homo sapiens, UniProt Q16873) (assay: LTC4 synthase in vitro assay (HTRF detection of LTC4)). Conditions: compound concentration 1 μM; HTRF method.
T1 construct: made in house; host or cells: Pichia pastoris
T1 sequence (Q16873 1-150): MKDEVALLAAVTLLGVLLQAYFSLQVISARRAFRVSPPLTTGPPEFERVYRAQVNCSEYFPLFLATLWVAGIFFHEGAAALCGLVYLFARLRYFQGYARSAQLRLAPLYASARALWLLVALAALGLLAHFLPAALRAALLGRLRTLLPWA
Type: biochemical
Method: Alternatively HTRF detection of LTC4 can be used:
In the assay, LTC4 synthase catalyses the reaction where the substrate LTA4 is converted to LTC4. Recombinant human LTC4 synthase is expressed in Piccia pastoralis and the purified enzyme is dissolved in 25 mM Tris-buffer pH 7.8 supplemented with 0.1 mM glutathione (GSH) and stored at −80° C. The assay is performed in phosphate buffered saline (PBS) pH 7.4 and 5 mM GSH in 384-well plates.
The following is added chronologically to each well: • 1. 48 μl LTC4 synthase in PBS with 5 mM GSH. The total protein concentration in this solution is 0.5 μg/ml. • 2. […] Incubation of the plate at room temperature for 10 minutes. • 4. 1 μl LTA4 (final conc. 2.5 μM). • 5. Incubation of the plate at room temperature for 5 minutes. • 6. 10 μl of the incubation mixture is analysed using homogeneous time resolved fluorescent (HTRF) detection.

For `O=C(Cc1ccc(Cl)cc1)Nc1ccc(Oc2ccc(NC(=O)c3ccc(C(F)(F)F)cc3)c(C(=O)O)c2)cc1` [8:7, 5-[(4-(2-(4-chlorophenyl)acetyl-amino)phenoxy)]-2-(4-trifluoro-methylbenzoylamino)benzoic acid], the “% inh.” value was 64 (1 μM) %.

Same assay, conditions: total concentration of title compound in the assay 10 μM; HTRF method

In order of falling inhibition at 10 µM:
1. O=C(Nc1ccc(Oc2ccc(S(=O)(=O)Nc3ccc(F)c(F)c3)cc2)cc1C(=O)O)c1ccc(Cl)cc1Cl [25:4, 2-(2,4-Dichlorobenzoylamino)-5-[4-(3,4-difluorophenylsulfamoyl)-phenoxy]benzoic acid]  100%
2. O=C(Nc1ccc(Oc2ccc(NC(=O)c3cccc(Cl)c3)c(C(=O)O)c2)cc1C(=O)O)c1ccc([N+](=O)[O-])cc1 [2:3, 5-[3-carboxy-4-(4-nitrobenzamido)-phenyloxy]-2-(3-chlorobenzamido)benzoic acid]  100%
3. O=C(O)c1cc(Oc2ccc(S(=O)(=O)Nc3ccc(Cl)cc3)cc2)ccc1Nc1ccc(F)c(F)c1 [Example 25:7, 5-[4-(4-Chlorophenylsulfamoyl)-phenoxy]-2-(3,4-difluorophenyl-amino)benzoic acid]  100%
4. CCCCOc1ccc(S(=O)(=O)Nc2ccc(Oc3ccc(S(=O)(=O)Nc4ccc(F)c(F)c4)cc3)cc2C(=O)O)cc1 [25:3, 2-(4-Butoxybenzenesulfonyl-amino)-5-[4-(3,4-difluorophenyl-sulfamoyl)phenoxy]benzoic acid]  100%
5. CCCCOc1ccc(S(=O)(=O)Nc2ccc(Oc3cccc(C(=O)NS(=O)(=O)c4cccc(Cl)c4F)c3)cc2C(=O)O)cc1 [20:1, 2-(4-Butoxy-benzenesulfonylamino)-5-[3-(3-chloro-2-fluoro-benzene-sulfonylaminocarbonyl)-phenoxy]-benzoic acid]  99%
6. O=C(Nc1ccc(Oc2ccc(NC(=O)c3ccc([N+](=O)[O-])cc3)c(C(=O)O)c2)cc1C(=O)O)c1ccccc1 [5:2, 5-[3-carboxy-4-(4-nitrobenzamido)-phenyloxy]-2-benzamidobenzoic acid]  99%
7. CC(C)Oc1ccc(C(=O)Nc2ccc(Oc3ccc(N(C)C(=O)c4ccc(C(F)(F)F)cc4)cc3)cc2C(=O)O)cc1 [9:4, 5-(4-((N-methyl)-4-trifluoromethyl-benzamido)phenoxy)-2-(4-isopropoxy-benzamido)benzoic acid]  99%
8. COc1cc(Cl)ccc1C(=O)Nc1ccc(Oc2ccc(NC(=O)c3ccc(C(C)(C)C)cc3)cc2)cc1C(=O)O [8:19, 5-[4-(4-tert-Butylbenzoyl-amino)phenoxy]-2-(4-chloro-2-methoxybenzoylamino)-benzoic acid]  99%
9. CCCCc1ccc(C(=O)Nc2cccc(Oc3ccc(NC(=O)c4c(F)cccc4F)c(C(=O)O)c3)c2)cc1 [10:1, 5-[(3-(4-(1-butyl)benzoylamino)-phenoxy)]-2-(2,6-difluorobenzoyl-amino)benzoic acid]  98%
10. CC(C)(C)c1ccc(C(=O)Nc2ccc(Oc3ccc(NC(=O)c4cc(Cl)cnc4Cl)c(C(=O)O)c3)cc2)cc1 [8:17, 5-[4-(4-tert-Butylbenzoyl-amino)phenoxy]-2-[(2,5-di-chloropyridine-3-carbonyl)-amino]benzoic acid]  98%
11. O=C(O)c1cc(Sc2ccc(Nc3ccc(Cl)cc3)cc2)ccc1Nc1ccc(Cl)cc1 [Example 14:1, 2-(4-chlorophenylamino)-5-[4-(4-chlorophenylamino)-phenylsulfanyl]benzoic acid]  98%
12. O=C(Nc1ccc(Oc2ccc(NS(=O)(=O)c3ccc(C(F)(F)F)cc3Cl)cc2)cc1C(=O)O)c1ccc(C(F)(F)F)cc1 [11:2, 5-[4-(2-chloro-4-trifluoromethyl-benzenesulfonylamino)phenoxy]-2-(4-trifluoromethylbenzoyl-amino)benzoic acid]  97%
13. O=C(Nc1ccc(Cl)cc1)Nc1ccc(Sc2ccc(NC(=O)Nc3ccc(Cl)cc3)c(C(=O)O)c2)cc1 [14:5, 2-[3-(4-chlorophenyl)-ureido]-5-{4-[3-(4-chlorophenyl)-ureido]phenylsulfanyl}-benzoic acid]  97%
14. COc1ccc(S(=O)(=O)N(C)c2ccc(Oc3ccc(NC(=O)c4ccc(Cl)cc4OC)c(C(=O)O)c3)cc2)cc1 [11:17, 2-(4-Chloro-2-methoxy-benzoylamino)-5-{4-[(4-methoxy-benzenesulfonyl)-methyl-amino]-phenoxy}-benzoic acid]  97%
15. CCCCOc1ccc(S(=O)(=O)Nc2ccc(Oc3ccc(NC(=O)c4ccccc4)cc3)cc2/C=C/C(=O)O)cc1 [Example 22:1, (E)-3-[5-(4-Benzoylaminophenoxy)-2-(4-butoxybenzenesulfonylamino)-phenyl]acrylic acid]  96%
16. CCCCc1ccc(C(=O)Nc2ccc(Oc3ccc(NS(=O)(=O)c4ccccc4)c(C(=O)OC)c3)cc2C(=O)O)cc1 [Example 7:1, 2-(4-butylbenzamido)-5-(3-(methoxycarbonyl)-4-(phenylsulfonamido)-phenoxy)benzoic acid]  95%
17. CCCCOc1ccc(S(=O)(=O)Nc2ccc(Oc3ccc(N(C)C(=O)c4ccccc4)c(C(=O)O)c3)cc2)cc1 [11:9, 2-(benzoylmethylamino)-5-[4-(4-butoxybenzenesulfonylamino)-phenoxy]benzoic acid]  89%
18. O=C(Nc1ccc(Oc2ccc([N+](=O)[O-])c(C(=O)O)c2)cc1C(=O)O)c1ccc(C(F)(F)F)cc1 [3:2, 2-nitro-5-[4-(4-trifluoromethyl-benzoylamino)-3-carboxy-phenoxy]benzoic acid]  86%
19. CCCCc1ccc(C(=O)Nc2ccc(Oc3ccc(NS(=O)(=O)c4ccc5c(c4)CNCC5)c(CC(=O)O)c3)cc2)cc1 [17:6, [5-[4-(4-butyl-benzoylamino)-phenoxy]-2-(1,2,3,4-tetrahydro-isoquinoline-7-sulfonylamino)-phenyl]-acetic acid]  23%

In order of falling “% inh.” value:
1. O=C(Nc1ccc(Oc2ccc(NC(=O)c3cc(Cl)ccc3F)c(C(=O)O)c2)cc1C(=O)O)c1cccc(Cl)c1 [2:2, 5-[3-carboxy-4-(3-chloro-6-fluorobenz-amido)phenyloxy]-2-(3-chlorobenz-amido)benzoic acid]  100%
2. CC(C)(C)c1ccc(C(=O)Nc2ccc(Oc3ccc(NC(=O)c4ccccc4Cl)c(C(=O)O)c3)cc2)cc1 [Example 8:15, 5-[4-(4-tert-Butylbenzoyl-amino)phenoxy]-2-(2-chloro-benzoylino)benzoic acid]  98%
3. O=C(Nc1ccc(Oc2ccc(NC(=O)c3cccc(Cl)c3)c(C(=O)O)c2)cc1C(=O)O)c1ccc(SC(F)(F)F)cc1 [2:1, 5-[3-carboxy-4-(4-(trifluoromethylthio)-benzamido)-phenyloxy]-2-(3-chlorobenz-amido)benzoic acid]  98%
4. O=C(Nc1ccc(Oc2ccc(NC(=O)c3cc(Cl)ccc3O)cc2)cc1C(=O)O)c1ccc(C(F)(F)F)cc1 [8:3, 5-[4-(5-chloro-2-hydroxybenzoylamino)phenoxy]-2-(4-trifluoro-methylbenzoylamino)-benzoic acid]  96%
5. CCCCc1ccc(C(=O)Nc2cccc(Oc3ccc(NC(=O)c4ccc(C(F)(F)F)cc4F)c(C(=O)O)c3)c2)cc1 [10:4, 5-[3-((4-(1-butyl)benzoyl)amino)-phenoxy]-2-(2-fluoro-4-trifluoro-methylbenzoylamino)benzoic acid]  95%
